Reference: PubChem BioAssay AID1963827 (Molecular Pharmacology Branch, DTP, NCI, 2024)
Values joined by “and” are separate entries in the source; they are usually repeats but may differ in a detail not shown here. Identical values can stand only once.

System: 994946-033-R-J1-PDC complex spheroid viability
Assay: Anticancer human tumor 994946-033-R-J1-PDC patient-derived melanoma cell line growth inhibition [POLQ]
Conditions: for viability, T/C: stronger effect = lower value; active means viability on the fitted dose curve at most 10% of control; inactive means the rest
Procedure: Multicellular complex tumor spheroid response to Polymerase (POL) inhibitors (novobiocin, ART-558, RP6685) in combination with a variety of drugs and investigational agents in selected tumor cell lines
The POL inhibitors (novobiocin, ART-558, and RP6685) were evaluated both individually and in combination with standard of care and investigational anticancer small molecules within a complex spheroid model of solid tumors. . Complex spheroids include a stromal component modeled by human endothelial cells (HUVEC) and fibroblasts modeled by human mesenchymal stem cells (MSCs). The concentration ranges selected for each drug and investigational agent were based upon clinically achievable concentrations if the clinical Cmax of the agent was known.
Compounds. The drugs and investigational agents: novobiocin (NSC847541), ART-558 (NSC835418), RP-6685 (NSC848927), peposertib (NSC802822), ceralasertib (NSC780249), elimusertib (NSC800525), camonsertib (NSC841442), AZD-1390 (NSC803789), olaparib (NSC753686), talazoparib (NSC767125), rucaparib (NSC756644), sotorasib (NSC818433), MRTX-1133 (NSC836407), SN-38 (NSC673596), topotecan (NSC609699), epotoside (NSC141540), doxorubicin (NSC123127), gemcitabine (NSC613327), 5-fluorouracil (NSC19893), paclitaxel (NSC125973), vemurafenib (NSC761431), MSA-2 (NSC828583), SN-011 (NSC837082), adavosertib (NSC754352), prexasertib (NSC758257), carboplatin (NSC241240) and oxaliplatin (NSC266046), were obtained from the National Cancer Institute (NCI) Developmental Therapeutics Program Chemical Repository (21). The FDA-approved anticancer drug set is available from the Developmental Therapeutics Program at https://dtp.cancer.gov/organization/dscb/obtaining/. […] The stock solutions were prepared in dimethyl sulfoxide (DMSO, Sigma-Aldrich, St. Louis, MO, cat. D2650), except for the platinum compounds which were prepared in saline (Quality Biological, Gaithersburg, MD, cat. 114-055-101), at 800-fold the tested concentration and stored at -70 degrees C prior to their use. All drugs and investigational agents were tested over a range starting from a high concentration at or near the clinical Cmax and decreasing in half-log increments. If the clinical Cmax for an agent had not been determined, the highest concentration tested was 10 microM, except for SN-38, which was tested at a high concentration of 1 microM.
Cell Culture. All cells were maintained in an incubator at 37 degrees C and 5% CO2 with 95% humidity. The PDC lines were cultured according to standard operating procedures established by the NCI PDMR (https://pdmr.cancer.gov). Table 3 of the manuscript, lists the cell lines along with the number of the three cell types plated to form the mct-spheroids and media for tumor cell growth. After thawing, all PDC lines, except 997537-175-T-J1-PDC and 415267-285-R-J2-PDC, were cultured in Matrigel-coated flasks prepared with a working solution of 1X Ham's F-12 nutrient mix, without supplementation (Thermo Fisher Scientific, cat. 11765054), 100 U/mL penicillin-streptomycin (Thermo Fisher Scientific, cat. 15140122), and 2.5% Matrigel (Corning Inc., Corning, NY, cat. 354248) for the first three passages. The two PDC lines 997537-175-T-J1-PDC and 415267-285-R-J2-PDC were cultured on uncoated flasks. The 857933-349-R-J2-PDC line was cultured in 6C/Colon 1B media containing advanced DMEM/F-12 (Thermo Fisher Scientific, cat. 12634028), 10 mM HEPES (Thermo Fisher Scientific, cat. 15630080), 1X GlutaMAX supplement (Thermo Fisher Scientific, cat. 35050061), 0.1 mg/mL primocin (InvivoGen, San Diego, CA, cat. ant-pm-2), 10% defined fetal bovine serum, heat inactivated (HyClone Laboratories Inc., Logan, UT, cat. SH30070.03HI), 50% L-WRN conditioned media (ATCC, cat. CRL-3276), 1.25 mM N-Acetyl-L-cysteine (Sigma-Aldrich, cat. A9165), 10 mM nicotinamide (Sigma-Aldrich, cat. N0636), 1X B-27 supplement (Thermo Fisher Scientific, cat. 17504044), 1X N-2 supplement (Thermo Fisher Scientific, cat. […]
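Further: spheroids exposed to drugs for 7 days.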
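Wherever viability, T/C is given: 100% = DMSO vehicle treated spheroids.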

C=CC(=O)N1CCN(c2nc(=O)n(-c3c(C)ccnc3C(C)C)c3nc(-c4c(O)cccc4F)c(F)cc23)C(C)C1 (centres undefined)
> 10000 nM: IC50 (curve of compound)
inactive: viability, T/C (compound 0.0316 µM) 127% and 82.1% and 87.4% | viability, T/C (compound 0.1 µM) 72.6% and 95.5% and 105% | viability, T/C (compound 0.316 µM) 121% and 63.8% and 132% | viability, T/C (compound 1 µM) 101% and 104% and 100% | viability, T/C (compound 3.16 µM) 102% and 93.9% and 110% | viability, T/C (compound 10 µM) 120% and 102% and 100%

CC[C@@]1(O)C(=O)OCc2c1cc1n(c2=O)Cc2cc3c(CN(C)C)c(O)ccc3nc2-1 + Nc1ccc(C#CCN(C(=O)Cc2ncc(C(F)(F)F)cc2C(F)(F)F)c2ccc(F)cc2)nn1
29.4 nM: IC50 (curve of first compound, second compound 0.1 µM)
30.3 nM: IC50 (curve of first compound, second compound 10 µM)
inactive: viability, T/C (second compound 0.0316 µM, first compound 0.000316 µM) 95.3% | viability, T/C (second compound 0.0316 µM, first compound 0.001 µM) 94.5% | viability, T/C (second compound 0.0316 µM, first compound 0.00316 µM) 99.9% | viability, T/C (second compound 0.0316 µM, first compound 0.01 µM) 79% | viability, T/C (second compound 0.0316 µM, first compound 0.0316 µM) 45% | viability, T/C (second compound 0.1 µM, first compound 0.000316 µM) 91.7% | viability, T/C (second compound 0.1 µM, first compound 0.001 µM) 113% | viability, T/C (second compound 0.1 µM, first compound 0.00316 µM) 78.2% | viability, T/C (second compound 0.1 µM, first compound 0.01 µM) 98.9% | viability, T/C (second compound 0.1 µM, first compound 0.0316 µM) 46.9% | viability, T/C (second compound 0.1 µM, first compound 0.1 µM) 15.4% | viability, T/C (second compound 0.316 µM, first compound 0.000316 µM) 101% | viability, T/C (second compound 0.316 µM, first compound 0.001 µM) 109% | viability, T/C (second compound 0.316 µM, first compound 0.00316 µM) 89.9% | viability, T/C (second compound 0.316 µM, first compound 0.01 µM) 79.5% | viability, T/C (second compound 0.316 µM, first compound 0.0316 µM) 34.6% | viability, T/C (second compound 0.316 µM, first compound 0.1 µM) 17.1% | viability, T/C (second compound 1 µM, first compound 0.000316 µM) 130% | viability, T/C (second compound 1 µM, first compound 0.001 µM) 90.3% | viability, T/C (second compound 1 µM, first compound 0.00316 µM) 106% | viability, T/C (second compound 1 µM, first compound 0.01 µM) 87.8% | viability, T/C (second compound 1 µM, first compound 0.0316 µM) 33.7% | viability, T/C (second compound 1 µM, first compound 0.1 µM) 11.7% | viability, T/C (second compound 3.16 µM, first compound 0.000316 µM) 92% | viability, T/C (second compound 3.16 µM, first compound 0.001 µM) 119% | viability, T/C (second compound 3.16 µM, first compound 0.00316 µM) 96.8% | viability, T/C (second compound 3.16 µM, first compound 0.01 µM) 86.8% | viability, T/C (second compound 3.16 µM, first compound 0.0316 µM) 31.4% | viability, T/C (second compound 3.16 µM, first compound 0.1 µM) 13.7% | viability, T/C (second compound 10 µM, first compound 0.000316 µM) 100% | viability, T/C (second compound 10 µM, first compound 0.001 µM) 113% | viability, T/C (second compound 10 µM, first compound 0.00316 µM) 98.5% | viability, T/C (second compound 10 µM, first compound 0.01 µM) 110% | viability, T/C (second compound 10 µM, first compound 0.0316 µM) 47.7% | viability, T/C (second compound 10 µM, first compound 0.1 µM) 14.4%
22.5 nM: IC50 (curve of first compound, second compound 1 µM)
active: viability, T/C (second compound 0.0316 µM, first compound 0.1 µM) 9.6%
21.5 nM: IC50 (curve of first compound, second compound 3.16 µM)
26.5 nM: IC50 (curve of first compound, second compound 0.0316 µM)
21.4 nM: IC50 (curve of first compound, second compound 0.316 µM)
